Where two headings read alike, the source gives them in different places.
Key:
[1] = test system: PSMA^+ PC-3 PIP and PC-3 flu xenografts; experiment: PET-CT imaging, PC-3 PIP and PC-3 flu xenografts; type: in vivo; settings: dynamic scan 94-120 min p.i., i.v.
[2] = test system: PC-3 PIP (PSMA^+) and PC-3 flu (PSMA^-) xenografts

`O=C(O)CCC(NC(=O)NC(CCCCNC(=O)c1ccc([18F])cc1)C(=O)O)C(=O)O` (stereo not drawn) [Compound [^18F]6, 2-[3-[1-carboxy-5-(4-[^18F]fluoro-benzoylamino)-pentyl]-ureido]-pentanedioic acid] was tested. Which “uptake pattern on PET” value [1] did it give?
The value was “easily observed within PSMA^+ PIP tumor, none within flu tumor, high renal uptake and a modest degree of liver uptake”.

And the “uptake in PC-3 PIP tumor” value ([2]; 30 min p.i.)?
The value was 8.6 ± 3.1 % ID/g.

And the “uptake in PC-3 flu tumor” value ([2]; 30 min p.i.)?
The value was 0.8 ± 0.3 % ID/g.

What about the uptake in bladder ([2]; 30 min p.i.) of the same compound?
The uptake in bladder was 6.8 ± 3.5 % ID/g.

What about the uptake in blood ([2]; 30 min p.i.) of the same compound?
Its uptake in blood is 2.5 ± 1.7 % ID/g.

What about the uptake in heart ([2]; 30 min p.i.) of the same compound?
The uptake in heart was 0.8 ± 0.1 % ID/g.

What about the uptake in kidney ([2]; 30 min p.i.) of the same compound?
Its uptake in kidney is 72 ± 3 % ID/g.

What about the “uptake in large int.” value ([2]; 30 min p.i.) of the same compound?
The value was 1.2 ± 0.8 % ID/g.

What about the uptake in liver ([2]; 30 min p.i.) of the same compound?
The uptake in liver was 8.7 ± 1.8 % ID/g.

What about the uptake in lung ([2]; 30 min p.i.) of the same compound?
Its uptake in lung is 1.7 ± 0.3 % ID/g.

And the uptake in muscle ([2]; 30 min p.i.)?
Its uptake in muscle is 2.4 ± 3.1 % ID/g.

And the uptake in pancreas ([2]; 30 min p.i.)?
The uptake in pancreas was 0.8± 0.1 % ID/g.

And the “uptake in small int.” value ([2]; 30 min p.i.)?
The value was 1.7 ± 0.7 % ID/g.

And the uptake in spleen ([2]; 30 min p.i.)?
The uptake in spleen was 12.7 ± 0.4 % ID/g.

What about the uptake in stomach ([2]; 30 min p.i.) of the same compound?
Its uptake in stomach is 0.8 ± 0.1 % ID/g.

What about the “uptake in PC-3 PIP tumor” value ([2]; 60 min p.i.) of the same compound?
The value was 6.4 ± 0.9 % ID/g.

What about the uptake in bladder ([2]; 60 min p.i.) of the same compound?
The uptake in bladder was 17 ± 21 % ID/g.

And the uptake in heart ([2]; 60 min p.i.)?
The uptake in heart was 0.2 ± 0.02 % ID/g.

What about the uptake in kidney ([2]; 60 min p.i.) of the same compound?
Its uptake in kidney is 48 ± 5 % ID/g.

What about the “uptake in large int.” value ([2]; 60 min p.i.) of the same compound?
Its value is 0.5 ± 0.1 % ID/g.

What about the uptake in liver ([2]; 60 min p.i.) of the same compound?
The uptake in liver was 5.8 ± 0.6 % ID/g.

What about the uptake in lung ([2]; 60 min p.i.) of the same compound?
Its uptake in lung is 0.5 ± 0.1 % ID/g.

And the uptake in muscle ([2]; 60 min p.i.)?
The uptake in muscle was 0.5 ± 0.7 % ID/g.

And the “uptake in small int.” value ([2]; 60 min p.i.)?
Its value is 0.6 ± 0.2 % ID/g.

And the uptake in spleen ([2]; 60 min p.i.)?
Its uptake in spleen is 7.2 ± 1.6 % ID/g.

What about the uptake in stomach ([2]; 60 min p.i.) of the same compound?
The uptake in stomach was 0.25 ± 0.1 % ID/g.

What about the “uptake in PC-3 PIP tumor” value ([2]; 2 h p.i.) of the same compound?
Its value is 3.7 ± 1.2 % ID/g.

What about the “uptake in PC-3 flu tumor” value ([2]; 2 h p.i.) of the same compound?
The value was 0.25 ± 0.1 % ID/g.

What about the uptake in heart ([2]; 2 h p.i.) of the same compound?
Its uptake in heart is 0.15 ± 0.05 % ID/g.

What about the uptake in kidney ([2]; 2 h p.i.) of the same compound?
The uptake in kidney was 29 ± 12 % ID/g.

What about the “uptake in large int.” value ([2]; 2 h p.i.) of the same compound?
The value was 0.2 ± 0.1 % ID/g.

And the uptake in liver ([2]; 2 h p.i.)?
The uptake in liver was 11.7 ± 7.0 % ID/g.

And the uptake in muscle ([2]; 2 h p.i.)?
The uptake in muscle was 0.2 ± 0.1 % ID/g.

What about the uptake in pancreas ([2]; 2 h p.i.) of the same compound?
The uptake in pancreas was 0.15 ± 0.03 % ID/g.

What about the uptake in spleen ([2]; 2 h p.i.) of the same compound?
The uptake in spleen was 4.4 ± 1.2 % ID/g.

What about the uptake in bladder ([2]; 5 h p.i.) of the same compound?
The uptake in bladder was 5.2 ± 8.9 % ID/g.

What about the uptake in blood ([2]; 5 h p.i.) of the same compound?
Its uptake in blood is 0.03 ± 0.00 % ID/g.

What about the uptake in heart ([2]; 5 h p.i.) of the same compound?
The uptake in heart was 0.03 ± 0.01 % ID/g.

And the uptake in kidney ([2]; 5 h p.i.)?
The uptake in kidney was 14 ± 9 % ID/g.

And the “uptake in large int.” value ([2]; 5 h p.i.)?
Its value is 0.6 ± 0.6 % ID/g.

What about the uptake in pancreas ([2]; 5 h p.i.) of the same compound?
Its uptake in pancreas is 0.05 ± 0.03 % ID/g.

And the uptake in stomach ([2]; 5 h p.i.)?
The uptake in stomach was 0.04 ± 0.02 % ID/g.
